Test results taken from ChEMBL document CHEMBL3745645, “Synthesis, in vitro antitumor activity, dihydrofolate reductase inhibition, DNA intercalation and structure-activity relationship studies of 1,3,5-triazine analogues” (Bioorg Med Chem Lett, 2016).
Calls of active or inactive are those of the source. The rule behind the calls is not given here.

How the values were obtained:
Format in all cases: functional
CAKI-1 = assay: Cytotoxicity against human Caki1 cells at 10 uM after 48 hrs by SRB assay
[1] = Cytotoxicity against human RXF393 cells at 10 uM after 48 hrs by SRB assay; conditions: RXF 393, 48 h, read-out: GI
SN12C = assay: Cytotoxicity against human SN12C cells at 10 uM after 48 hrs by SRB assay; conditions: read-out: GI
[2] = Cytotoxicity against human TK10 cells at 10 uM after 48 hrs by SRB assay; conditions: TK-10, 48 h, read-out: GI
[3] = Cytotoxicity against human UO31 cells at 10 uM after 48 hrs by SRB assay; conditions: UO-31, 48 h, read-out: GI
[4] = Cytotoxicity against human DU145 cells at 10 uM after 48 hrs by SRB assay; conditions: DU-145, 48 h, read-out: GI
MCF7 = assay: Cytotoxicity against human MCF7 cells at 10 uM after 48 hrs by SRB assay; conditions: MCF7, 48 h, read-out: GI
MDA-MB-231 = assay: Cytotoxicity against human MDA-MB-231 cells at 10 uM after 48 hrs by SRB assay; conditions: MDA-MB-231, 48 h, read-out: GI
[5] = Cytotoxicity against human Hs 578T cells at 10 uM after 48 hrs by SRB assay; conditions: read-out: GI
[6] = Cytotoxicity against human BT549 cells at 10 uM after 48 hrs by SRB assay; conditions: BT-549, 48 h, read-out: GI
T47D = assay: Cytotoxicity against human T47D cells at 10 uM after 48 hrs by SRB assay; conditions: read-out: GI
MDA-MB-468 = assay: Cytotoxicity against human MDA-MB-468 cells at 10 uM after 48 hrs by SRB assay; conditions: MDA-MB-468, 48 h, read-out: GI
CCRF-CEM = assay: Cytotoxicity against human CCRF-CEM cells at 10 uM after 48 hrs by SRB assay
[7] = Cytotoxicity against human HL-60(TB) cells at 10 uM after 48 hrs by SRB assay; conditions: HL-60, 48 h, read-out: GI
K562 = assay: Cytotoxicity against human K562 cells at 10 uM after 48 hrs by SRB assay; conditions: K562, 48 h, read-out: GI
[8] = Cytotoxicity against human MOLT4 cells at 10 uM after 48 hrs by SRB assay; conditions: MOLT-4, 48 h, read-out: GI
[9] = Cytotoxicity against human RPMI8226 cells at 10 uM after 48 hrs by SRB assay; conditions: RPMI-8226, 48 h, read-out: GI
SR = assay: Cytotoxicity against human SR cells at 10 uM after 48 hrs by SRB assay; conditions: read-out: GI
A549 = assay: Cytotoxicity against human A549 cells at 10 uM after 48 hrs by SRB assay; conditions: A549, 48 h, read-out: GI
[10] = Cytotoxicity against human HOP62 cells at 10 uM after 48 hrs by SRB assay; conditions: HOP-62, 48 h, read-out: GI
[11] = Cytotoxicity against human HOP92 cells at 10 uM after 48 hrs by SRB assay; conditions: HOP-92, 48 h, read-out: GI
NCI-H226 = assay: Cytotoxicity against human NCI-H226 cells at 10 uM after 48 hrs by SRB assay; conditions: NCI-H226, 48 h, read-out: GI
NCI-H460 = assay: Cytotoxicity against human NCI-H460 cells at 10 uM after 48 hrs by SRB assay; conditions: NCI-H460, 48 h, read-out: GI
NCI-H522 = assay: Cytotoxicity against human NCI-H522 cells at 10 uM after 48 hrs by SRB assay; conditions: NCI-H522, 48 h, read-out: GI
[12] = Cytotoxicity against human COLO205 cells at 10 uM after 48 hrs by SRB assay; conditions: COLO 205, 48 h, read-out: GI
[13] = Cytotoxicity against human HCC2998 cells at 10 uM after 48 hrs by SRB assay; conditions: HCC 2998, 48 h, read-out: GI
[14] = Cytotoxicity against human HCT116 cells at 10 uM after 48 hrs by SRB assay; conditions: HCT-116, 48 h, read-out: GI
[15] = Cytotoxicity against human HCT15 cells at 10 uM after 48 hrs by SRB assay; conditions: HCT-15, 48 h, read-out: GI
HT-29 = assay: Cytotoxicity against human HT-29 cells at 10 uM after 48 hrs by SRB assay; conditions: HT-29, 48 h, read-out: GI
KM12 = assay: Cytotoxicity against human KM12 cells at 10 uM after 48 hrs by SRB assay; conditions: KM12, 48 h, read-out: GI
[16] = Cytotoxicity against human SW620 cells at 10 uM after 48 hrs by SRB assay; conditions: SW-620, 48 h, read-out: GI
[17] = Cytotoxicity against human SF268 cells at 10 uM after 48 hrs by SRB assay; conditions: SF-268, 48 h, read-out: GI
[18] = Cytotoxicity against human SF295 cells at 10 uM after 48 hrs by SRB assay; conditions: SF-295, 48 h, read-out: GI
[19] = Cytotoxicity against human SF539 cells at 10 uM after 48 hrs by SRB assay; conditions: SF-539, 48 h, read-out: GI
[20] = Cytotoxicity against human SNB19 cells at 10 uM after 48 hrs by SRB assay; conditions: SNB-19, 48 h, read-out: GI
[21] = Cytotoxicity against human SNB75 cells at 10 uM after 48 hrs by SRB assay; conditions: SNB-75, 48 h, read-out: GI
U-251 = assay: Cytotoxicity against human U251 cells at 10 uM after 48 hrs by SRB assay; conditions: U-251, 48 h, read-out: GI
[22] = Cytotoxicity against human LOXIMVI cells at 10 uM after 48 hrs by SRB assay; conditions: LOX IMVI, read-out: GI
Malme-3M = assay: Cytotoxicity against human MALME-3M cells at 10 uM after 48 hrs by SRB assay; conditions: read-out: GI
M14 = assay: Cytotoxicity against human M14 cells at 10 uM after 48 hrs by SRB assay; conditions: M14, 48 h, read-out: GI
MDA-MB-435 = assay: Cytotoxicity against human MDA-MB-435 cells at 10 uM after 48 hrs by SRB assay; conditions: MDA-MB-435, 48 h, read-out: GI
SK-MEL-2 = assay: Cytotoxicity against human SK-MEL-2 cells at 10 uM after 48 hrs by SRB assay; conditions: SK-MEL-2, 48 h, read-out: GI
SK-MEL-28 = assay: Cytotoxicity against human SK-MEL-28 cells at 10 uM after 48 hrs by SRB assay; conditions: SK-MEL-28, 48 h, read-out: GI
SK-MEL-5 = assay: Cytotoxicity against human SK-MEL-5 cells at 10 uM after 48 hrs by SRB assay; conditions: SK-MEL-5, 48 h, read-out: GI
[23] = Cytotoxicity against human UACC257 cells at 10 uM after 48 hrs by SRB assay; conditions: UACC-257, 48 h, read-out: GI
[24] = Cytotoxicity against human IGROV1 cells at 10 uM after 48 hrs by SRB assay; conditions: IGROV-1, 48 h, read-out: GI
[25] = Cytotoxicity against human OVCAR3 cells at 10 uM after 48 hrs by SRB assay; conditions: OVCAR-3, 48 h, read-out: GI
[26] = Cytotoxicity against human OVCAR4 cells at 10 uM after 48 hrs by SRB assay; conditions: OVCAR-4, 48 h, read-out: GI
OVCAR-5 = assay: Cytotoxicity against human OVCAR5 cells at 10 uM after 48 hrs by SRB assay
[27] = Cytotoxicity against human OVCAR8 cells at 10 uM after 48 hrs by SRB assay; conditions: OVCAR-8, 48 h, read-out: GI
[28] = Cytotoxicity against human NCI-ADR-RES cells at 10 uM after 48 hrs by SRB assay; conditions: read-out: GI
[29] = Cytotoxicity against human SKOV3 cells at 10 uM after 48 hrs by SRB assay; conditions: SK-OV-3, 48 h, read-out: GI
786-0 = assay: Cytotoxicity against human 786-0 cells at 10 uM after 48 hrs by SRB assay; conditions: 786-0, 48 h, read-out: GI
A498 = assay: Cytotoxicity against human A498 cells at 10 uM after 48 hrs by SRB assay; conditions: A498, 48 h, read-out: GI
ACHN = assay: Cytotoxicity against human ACHN cells at 10 uM after 48 hrs by SRB assay; conditions: read-out: GI

In the case of `Cc1nc2cc(Nc3nc(Nc4ccc(F)cc4)nc(-c4ccccc4)n3)ccc2n1Cc1ccccc1`, the “growth inhibition (GI)” value (CAKI-1) was “inactive”, the inhibition of growth at 10 µM [1] was 30.9% and the inhibition of growth at 10 µM (SN12C) was 21.9%. It also gave an inhibition of growth at 10 µM [2] of 0.81%, an inhibition of growth at 10 µM [3] of 43.4% and an inhibition of growth at 10 µM [4] of 2.93%. The inhibition of growth at 10 µM (MCF7) was 54.9%, the inhibition of growth at 10 µM (MDA-MB-231) was 9.76% and the inhibition of growth at 10 µM [5] was 20.4%. For the same molecule, the inhibition of growth at 10 µM [6] was 4.6%, the inhibition of growth at 10 µM (T47D) was 55.5% and the inhibition of growth at 10 µM (MDA-MB-468) was 27.6%. For the same molecule, the “growth inhibition (GI)” value (CCRF-CEM) was “inactive”, the inhibition of growth at 10 µM [7] was 36.3% and the inhibition of growth at 10 µM (K562) was 38.2%. The inhibition of growth at 10 µM [8] was 41.8%, the inhibition of growth at 10 µM [9] was 53% and the inhibition of growth at 10 µM (SR) was 68.2%. It also gave an inhibition of growth at 10 µM (A549) of 32.5%, an inhibition of growth at 10 µM [10] of 5.32% and an inhibition of growth at 10 µM [11] of 35.6%. It also gave an inhibition of growth at 10 µM (NCI-H226) of 19.3%, an inhibition of growth at 10 µM (NCI-H460) of 16.8% and an inhibition of growth at 10 µM (NCI-H522) of 24.1%. It also gave an inhibition of growth at 10 µM [12] of 29.5%, an inhibition of growth at 10 µM [13] of 12% and an inhibition of growth at 10 µM [14] of 39.7%. It also gave an inhibition of growth at 10 µM [15] of 32.4%, an inhibition of growth at 10 µM (HT-29) of 40.6% and an inhibition of growth at 10 µM (KM12) of 39.8%. For the same molecule, the inhibition of growth at 10 µM [16] was 15.4%, the inhibition of growth at 10 µM [17] was 23.8% and the inhibition of growth at 10 µM [18] was 17.3%. It also gave an inhibition of growth at 10 µM [19] of 0.21%, an inhibition of growth at 10 µM [20] of 31.5% and an inhibition of growth at 10 µM [21] of 28.4%. It also gave an inhibition of growth at 10 µM (U-251) of 36.6%, an inhibition of growth at 10 µM [22] of 12.3% and an inhibition of growth at 10 µM (Malme-3M) of 11.4%. It also gave an inhibition of growth at 10 µM (M14) of 34.1%, an inhibition of growth at 10 µM (MDA-MB-435) of 40% and an inhibition of growth at 10 µM (SK-MEL-2) of 25.4%. The inhibition of growth at 10 µM (SK-MEL-28) was 5.63%, the inhibition of growth at 10 µM (SK-MEL-5) was 14.5% and the inhibition of growth at 10 µM [23] was 18.7%. For the same molecule, the inhibition of growth at 10 µM [24] was 31%, the inhibition of growth at 10 µM [25] was 18.8% and the inhibition of growth at 10 µM [26] was 39.8%. The “growth inhibition (GI)” value (OVCAR-5) was “inactive”, the inhibition of growth at 10 µM [27] was 32.2% and the inhibition of growth at 10 µM [28] was 29.5%. It also gave an inhibition of growth at 10 µM [29] of 1.78%, an inhibition of growth at 10 µM (786-0) of 18.4% and an inhibition of growth at 10 µM (A498) of 23.2%. For the same molecule, the inhibition of growth at 10 µM (ACHN) was 23.6%.
